Experimental data published in paper PMC12735872, “Development of ^18F/^11C-Labeled Pyrrolo-Pyridine/Pyrimidine LRRK2 Selective PET Radioligands” (Pharmaceuticals, 2025).
Where two headings read alike, the source gives them in different places.

Tests used:
[1] = Free fraction in plasma (fp); assay type: in vitro ADME; conditions: method ref. 18
From the text: (§1) Table 1 LRRK2 wild-type (WT) and G2019S Lanthascreen, MDR1-MDCK permeability (Papp A:B), and efflux ratio (B:A/A:B), free fractions in plasma (fp) and brain homogenate (fb) and PET Multi-Parameter Optimization (MPO) score of Compounds 1, 2, and 3. | column: fp ^3 (%)

LRRK2 [2] = molecular target: T1, LRRK2 (Homo sapiens, UniProt Q5S007); experiment: In vitro autoradiography, human whole-hemisphere brain slices; assay type: binding; conditions: human brain slices; cold compound 10 µM
T1 construct: Human brains without pathological findings were acquired from the National Institute of Forensic Medicine; from tissue; host or cells: human post-mortem control brain, whole-hemisphere sections (100 µm)
Experimental: Human brains without pathological findings were acquired from the National Institute of Forensic Medicine at Karolinska Institutet in Stockholm, Sweden. These brains were obtained during forensic autopsies (designated as control brain) and were processed in a manner like previously described methods. […] The brain was removed, and its tissues were kept in −85 °C until the sectioning process. The whole brain hemispheric slices were subsequently maintained at −25 °C until the commencement of autoradiography procedures. […] The sectioning of the brain and the autoradiography experiments were performed at the Psychiatry section, Department of Neuroscience, Karolinska Institutet, Sweden.
(§2) Whole brain hemispheres were sectioned into horizontal slices with a thickness of 100 µm using a Leica cryomacrocut system. The autoradiographic procedures followed the same protocols established in previous studies conducted in our laboratory. The whole-hemisphere sections of 100 micron thickness were incubated for 90 min at room temperature with their corresponding radiotracer (4 MBq/200 mL) in TRIS buffer (pH 7.4) containing sodium chloride (120 mM), potassium chloride (5 mM), calcium chloride (2 mM), and albumin (0.1% w/v). After incubation, sections were washed three times in the same buffer at room temperature for five minutes each, briefly dipped in ice-cold distilled water, dried, and then placed in the phosphor imaging plates. Binding density standards were prepared by serial dilution of the radioligand stock solution in the assay buffer. Readings were taken with the Fujifilm BAS-5000 (Fujifilm, Tokyo, Japan), while quantitative analysis was conducted with the Multi Gauge 3.2 image analysis software (Fujifilm, Tokyo, Japan). For blocking experiments, adjacent brain sections were co-incubated with LuAF66583 (0.1 µM or 10 µM).

LRRK2 [3] = experiment: In vitro autoradiography, NHP brain slices; assay type: binding; conditions: cold compound 10 µM
Experimental: as §2, with “µM). […] The thickness differed from human tissue (20 µm).” for “µM).”

LRRK2 wild-type (WT) = LRRK2 wild-type (WT) (Homo sapiens, UniProt Q5S007); experiment: LRRK2 wild-type Lanthascreen; assay type: biochemical
MDR1 (P-gp) = experiment: MDR1-MDCK permeability and efflux ratio; assay type: in vitro ADME; conditions: dog, assay described in ref. 17; for Papp A→B: MDCK-MDR1; for efflux ratio: MDR1-MDCK, read-out: B:A/A:B (efflux ratio)
From the text: as §1, with “Papp A:B ^2 (MDR1-MDCK) (cm/s × 10^−6); B:A/A:B ^2” for “fp ^3 (%)”

[4] = Free fraction in brain homogenate (fb); assay type: in vitro ADME; conditions: method ref. 18
From the text: Table 1 LRRK2 wild-type (WT) and G2019S Lanthascreen, MDR1-MDCK permeability (Papp A:B), and efflux ratio (B:A/A:B), free fractions in plasma (fp) and brain homogenate (fb) and PET Multi-Parameter Optimization (MPO) score of Compounds 1, 2, and 3. | column: fb ^3 (%)

LRRK2 G2019S = LRRK2 G2019S (Homo sapiens, UniProt Q5S007, G2019S); experiment: LRRK2 G2019S Lanthascreen; assay type: biochemical
Chain of LRRK2 G2019S (Q5S007 whole entry G2019S): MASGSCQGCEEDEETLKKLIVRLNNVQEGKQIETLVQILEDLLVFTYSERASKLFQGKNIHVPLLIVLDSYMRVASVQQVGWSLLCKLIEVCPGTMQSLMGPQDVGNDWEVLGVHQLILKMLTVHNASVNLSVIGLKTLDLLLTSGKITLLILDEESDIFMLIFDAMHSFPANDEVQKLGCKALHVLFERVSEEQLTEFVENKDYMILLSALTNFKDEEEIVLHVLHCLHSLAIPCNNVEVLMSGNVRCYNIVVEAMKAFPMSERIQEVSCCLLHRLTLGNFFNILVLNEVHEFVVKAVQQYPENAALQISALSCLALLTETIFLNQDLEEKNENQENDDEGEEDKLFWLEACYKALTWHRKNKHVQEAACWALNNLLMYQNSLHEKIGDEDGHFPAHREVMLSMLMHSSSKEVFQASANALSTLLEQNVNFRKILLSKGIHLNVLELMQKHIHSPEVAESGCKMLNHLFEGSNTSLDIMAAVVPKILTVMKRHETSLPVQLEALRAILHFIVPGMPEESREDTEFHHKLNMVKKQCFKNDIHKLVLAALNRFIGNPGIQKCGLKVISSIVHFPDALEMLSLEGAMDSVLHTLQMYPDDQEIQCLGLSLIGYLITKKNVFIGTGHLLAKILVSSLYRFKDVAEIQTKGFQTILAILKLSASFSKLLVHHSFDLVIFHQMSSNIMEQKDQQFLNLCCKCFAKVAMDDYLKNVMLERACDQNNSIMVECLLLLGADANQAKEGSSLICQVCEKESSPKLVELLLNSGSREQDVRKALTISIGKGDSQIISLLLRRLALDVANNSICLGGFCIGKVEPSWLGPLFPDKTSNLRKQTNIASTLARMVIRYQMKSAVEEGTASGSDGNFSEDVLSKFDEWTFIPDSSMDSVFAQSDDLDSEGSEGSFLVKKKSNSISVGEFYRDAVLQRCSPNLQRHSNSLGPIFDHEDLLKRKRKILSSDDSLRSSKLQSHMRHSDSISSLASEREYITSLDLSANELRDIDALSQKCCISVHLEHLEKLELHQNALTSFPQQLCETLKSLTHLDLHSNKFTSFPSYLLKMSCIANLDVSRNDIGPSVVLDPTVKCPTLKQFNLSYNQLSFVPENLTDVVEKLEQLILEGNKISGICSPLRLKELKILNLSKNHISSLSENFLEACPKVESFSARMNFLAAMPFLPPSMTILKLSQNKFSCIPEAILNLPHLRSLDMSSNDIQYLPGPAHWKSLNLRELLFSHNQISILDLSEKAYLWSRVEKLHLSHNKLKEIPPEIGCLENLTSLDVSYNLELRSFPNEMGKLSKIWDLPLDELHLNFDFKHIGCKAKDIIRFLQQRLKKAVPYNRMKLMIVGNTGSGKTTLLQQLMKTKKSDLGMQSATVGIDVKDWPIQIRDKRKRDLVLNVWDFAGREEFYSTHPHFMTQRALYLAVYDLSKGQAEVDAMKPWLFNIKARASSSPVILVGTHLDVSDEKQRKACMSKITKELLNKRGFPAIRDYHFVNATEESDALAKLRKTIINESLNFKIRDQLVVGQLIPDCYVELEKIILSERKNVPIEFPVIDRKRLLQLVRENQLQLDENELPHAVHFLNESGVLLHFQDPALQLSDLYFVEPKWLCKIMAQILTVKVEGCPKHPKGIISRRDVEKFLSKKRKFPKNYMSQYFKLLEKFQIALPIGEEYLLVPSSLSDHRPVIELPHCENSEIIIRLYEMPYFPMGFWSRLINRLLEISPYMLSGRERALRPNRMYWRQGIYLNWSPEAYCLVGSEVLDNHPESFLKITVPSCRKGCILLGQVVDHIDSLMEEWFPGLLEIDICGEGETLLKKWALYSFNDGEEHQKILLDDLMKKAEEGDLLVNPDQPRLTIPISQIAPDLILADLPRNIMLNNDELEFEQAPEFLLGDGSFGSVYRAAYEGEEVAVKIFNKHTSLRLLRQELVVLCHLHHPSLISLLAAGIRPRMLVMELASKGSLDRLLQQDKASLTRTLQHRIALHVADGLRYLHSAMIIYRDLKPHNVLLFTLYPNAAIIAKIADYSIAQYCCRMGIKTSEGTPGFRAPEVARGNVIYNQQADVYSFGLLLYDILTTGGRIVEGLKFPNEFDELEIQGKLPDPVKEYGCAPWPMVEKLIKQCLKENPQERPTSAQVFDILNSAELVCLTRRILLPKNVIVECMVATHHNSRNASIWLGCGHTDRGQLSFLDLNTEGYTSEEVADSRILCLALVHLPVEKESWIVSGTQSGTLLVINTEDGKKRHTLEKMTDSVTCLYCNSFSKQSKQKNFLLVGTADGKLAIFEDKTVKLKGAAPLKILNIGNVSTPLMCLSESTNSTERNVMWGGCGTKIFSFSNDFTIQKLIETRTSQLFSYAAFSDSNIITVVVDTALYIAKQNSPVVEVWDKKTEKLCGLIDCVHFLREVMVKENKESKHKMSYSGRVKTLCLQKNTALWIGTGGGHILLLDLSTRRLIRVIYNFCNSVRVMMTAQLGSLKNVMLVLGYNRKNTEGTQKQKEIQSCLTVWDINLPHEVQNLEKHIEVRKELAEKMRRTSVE

T1 sequence (Q5S007 whole entry): as the sequence (Q5S007 whole entry G2019S) above, with S2019G counted along it
Chain of LRRK2 wild-type (WT) (Q5S007 whole entry): as the sequence (Q5S007 whole entry G2019S) above, with S2019G counted along it

Compound | fraction unbound [1] | Blocking of [^18F]1 binding (ARG) (LRRK2 [2]) | Blocking of [^18F]1 binding (ARG) (LRRK2 [3]) | Ki (LRRK2 wild-type (WT); assay described in ref. 16, read-out: LRRK2 Lanthascreen WT cKi) | Papp A→B (MDR1 (P-gp)) | efflux ratio (MDR1 (P-gp)) | fraction unbound [4] | Ki (LRRK2 G2019S; assay described in ref. 16, read-out: LRRK2 Lanthascreen G2019S cKi) | Ki (LRRK2 wild-type (WT)) | Ki (LRRK2 G2019S)
C[C@@H]1C[C@@H](F)CN1c1c(C#N)c2c(N)nccc2n1C [Compound 1, 4-Amino-2-((2R,4R)-4-fluoro-2-methylpyrrolidin-1-yl)-1-methyl-1H-pyrrolo[3,2-c]pyridine-3-carbonitrile] | 0.38 | effectively blocked | effectively blocked | 0.7 nM | 31 ×10⁻⁶ cm/s | 0.66 | 0.13 | 1 nM | – | –
C[C@@H]1CCCN1c1c(C#N)c2c(N)nc(Nc3cnn(C)c3)nc2n1C [Compound 3, (R)-4-amino-7-methyl-2-((1-methyl-1H-pyrazol-4-yl)amino)-6-(2-methylpyrrolidin-1-yl)-7H-pyrrolo[2,3-d]pyrimidine-5-carbonitrile] | 0.04 | effectively blocked | effectively blocked | – | 17 ×10⁻⁶ cm/s | 0.8 | 0.012 | – | 0.14 nM | 0.28 nM
